Literature values as cited in patent US9339581B2, “Absorbent and absorbent article provided therewith” (UNICHARM CORPORATION, priority 2012, dated 2016).

Conditions: at 20° C.; cited from earlier work

## CCCCC(=O)CCCC [5-nonanone]
  vapor pressure: about 230 Pa
